In patent publication US11045435B2, “Methods for treating ocular diseases” (NATUREWISE BIOTECH & MEDICALS CORPORATION, priority 2016, dated 2021):

Columns and labels:
[1] = test system: experimentally-induced ocular inflammation; experiment: Vascular permeability in experimentally-induced ocular inflammation; format: in vivo; conditions: earlier experiments of the applicant's laboratory
[2] = test system: IL-1-induced uveitis; experiment: IL-1-induced uveitis in rat eyes; format: in vivo; conditions: earlier experiments of the applicant's laboratory

Q: For `COc1ccc2ccc(=O)oc2c1CC=C(C)C` [Osthole], which vascular permeability [1] is on record?
A: showed efficacy to reduce vascular permeability

Q: And the IL-1-induced uveitis [2]?
A: inhibit IL-1-induced uveitis
